3 compounds from patent US11110195B2, “Esculentin 1a derivatives and uses thereof” (University of Houston System, priority 2013, dated 2021) can be followed below.

In data set [1] the test system is HaCaT keratinocytes. From the text:
Cell viability is expressed as percentage with respect to the control (cells not treated with the peptide). Data points represent the mean of triplicate samples ±SEM.

In data set [2] the test system is HaCaT cells. Briefly: Wound healing assay, HaCaT cells. It is filed as cell-based, human. The settings on record: HaCaT monolayer. On the procedure:
The percentage of cell-covered area at each time point is reported on the y-axis. Control (Ctrl) represents cells not treated with the peptide. All data are the mean of at least three independent experiments ±SEM. […] The optimal concentration allowing gap closure was 0.25 μM.
The experimental procedure is similar to that described in Example 6 with the following two differences: (i) 40,000 cells suspended in DMEM supplemented with 4 mM glutamine and 10% FBS were seeded on each side of the ibidi culture inserts instead of 70,000 cells in KGM-2g as for corneal epithelial cells; (ii) serum-free medium was used in the wound healing assay instead of medium supplemented with 5% FBS as for corneal epithelial cells. […] Overall, the experiments indicate that Esc-1a(1-21)NH2 can stimulate wound closure in different types of mammalian cells but this is with a different kinetic or optimal concentration and thus a stereospecific mechanism involving a direct/indirect activation of different signalling transduction cascades (depending on the selected cell type) likely subtends such events.

A short description of data set [3]: MTT viability assay, A549 cells. The settings on record: human. Here is the method:
(§1) Cell viability is expressed as percentage with respect to the control (cells not treated with the peptides). Data points represent the mean of triplicate samples ±SEM. […] The levels of statistical significance between the two peptides are indicated as follows: **p<0.01, ***p<0.001.
(§2) Cells were plated in wells of a microtiter plate, at 4×10^4 cells/well in DMEM supplemented with 2 mM glutamine and 2% FBS (for A549 cells) or DMEM containing 2 mM glutamine, non-essential amino acids (NEAA), sodium pyruvate and 2% FBS (for Raw 264.7 macrophages). After overnight incubation at 37° C. in a 5% CO2 atmosphere, the medium was replaced with 100 μl fresh serum-free medium supplemented with the peptides at different concentrations. After 24 h of peptide treatment, cell viability was determined by a MTT assay.
(In general: Tetrazolium assays rely on reduction of a dye to a coloured formazan, in cell work by metabolically active cells.)

The test system of data set [4] is A549 lung epithelial cells. The experiment in a line: Wound healing assay, A549 lung epithelial cells. The format is cell-based, human. The settings on record: A549 monolayer. Here is the method: The percentage of cell-covered area at each time point is reported on the y-axis. Control (Ctrl) represents cells not treated with the peptides. All data are the mean of at least three independent experiments ±SEM. […] Both peptides were able to stimulate the closure of the gap produced in the monolayer of A549 cells, with the optimal concentration allowing the almost complete coverage of the wound field equal to 10 μM (for the wild type peptide, FIG. 13A) or 4 μM (for the diastereomer, FIG. 13B) within approximately 24 hours or 20 hours, respectively.
As shown in FIGS. 13A-13B, Esc-1a(1-21)NH2 and its diastereomer both stimulated wound closure although at concentrations much higher than were required to induce a similar effect in human corneal epithelial cells. This may reflect cell specific differences.

Data set [5] has as its system P. aeruginosa ATCC 27853. The settings on record: soluble free form, 1 μM, within 20 minutes in PBS.
The nature of data set [6]: in vitro. The settings on record: for Peptide Amount (%): 24 h, 37° C.; for remaining at 5 h, 0.575 mM / remaining at 24 h, 0.575 mM: human. Here is the method: A total of 125 μl of a 0.92 mM solution of each peptide was incubated at 37° C. with 20 μl and 60 μl human serum. Samples were collected after 5 h and 24 h of incubation, precipitated with 200 μl methanol, and centrifuged for 2 min at 10,000 g.
The crude solution was then analyzed by high-performance liquid chromatography (HPLC) and mass spectrometry. HPLC was performed with a Vydac C18 column, and the crude solution was diluted 5 times with 0.1% trifluoroacetic acid before injection and monitored at 280 nm.

The subject of data set [7] is P. aeruginosa ATCC 27853 biofilm. The settings on record: 2 hours treatment. Here is the method: Data points are the mean±SEM of three independent experiments. The levels of statistically significant differences between the two peptides are indicated as follows *P<0.05, **P<0.01, ***P<0.001
The reference strain and the clinical isolates were grown at 37° C. in Luria-Bertani broth (LB) to mid-log phase (optical density of 0.8 at 590 nm). With the help of tweezers, silicone hydrogel narafilcon A soft CL (1-Day ACUVUE TruEye) were removed from the manufacturer's containers, and washed thrice in phosphate buffered saline (PBS). The lenses were then immersed into wells of a 24-multiwell plate, each well containing 1 mL of bacterial inoculum in 1/10 LB at a concentration of 5×10^4 colony-forming units (CFU)/mL. Noteworthy, the number of bacteria isolated from CL storage cases has been reported to range from 1 to 6×10^4 CFU/case (2, 10). Therefore, in order to reproduce a more realistic level of bacteria to which CLs can be exposed, an inoculum size of 5×10^4 CFU/mL was used for biofilm formation.
The plate was then incubated in a humidified incubator at 37° C. at 125 rpm to allow biofilm formation on the surface of both lens sides. After 20 hours of incubation, each lens was washed thrice with PBS to remove any non-adherent planktonic cells.
The lenses were then transferred into wells of a new 24-multiwell plate, each well containing serial dilutions of Esc-1a(1-21)NH2 and Esc-1a(1-21)-1cNH2 in PBS. For […] controls, the lenses were immersed in sterile PBS. The new plate was then incubated at 37° C. for 2 hours with gentle shaking (125 rpm). After peptide treatment, each lens was washed thrice in PBS and transferred into wells of another 24-multiwell plate, each well containing 350 μL of 0.5 mg/mL of 3-(4,5-dimethylthiazol-2-yl)-2,5-diphenyltetrazolium bromide (MTT, from Sigma Aldrich, Milan, Italy) in Hank's solution (136 mM NaCl; 0.34 mM Na2HPO4; 0.44 mMKH2PO4; 5.4 mM KCl; 4.1 mM NaHCO3 pH 7.2, supplemented with 5.5 mM D-glucose) as previously reported (8). The killing of biofilms was determined as a function of the inhibition of MTT reduction to insoluble formazan crystals by bacterial reductases. The plate was incubated again for 2 hours (125 rpm) at 37° C. Formazan crystals were solubilized by the addition of acidified isopropanol. During overnight incubation at room temperature the resulting purple color was absorbed by the lens. Afterward, each lens was soaked in absolute ethanol (500 μL in each well) to decolor it. Aliquots of 100 μL were finally transferred to the wells of a 96-multiwell plate and absorbance was measured at 590 nm using a microplate reader (Infine M 200, Tecan). Untreated bacterial cells in PBS were the control. Percentage of killing was calculated according to the formula: [1−(Abs of treated samples−Abs of blank/Abs of control samples-Abs of blank)][…], where the blank was the solvent PBS.

Data set [8] has as its system Raw 264.7 macrophages. Briefly: MTT viability assay, Raw 264.7 macrophages. The settings on record: 256 μM (highest concentration), 24 h. Here is the method:
as §1, §2

Data set [9] relates to human telomerase immortalized corneal epithelial cells. Briefly: in vitro. Here is the method:
Human corneal epithelial cells were incubated with varying concentrations of Esc-1a(1-21)NH2 for 24 hrs then cytotoxicity determined by MTT assay. Data are the mean of 3 independent experiments.
To determine the toxicity of Esc-1a(1-21)NH2 to human telomerase immortalized corneal epithelial cells, the following experiment was performed. The MTT (3-(4,5-Dimethylthiazole-2-yl)-2,5-diphenyltetrazolium bromide) assay measures the activity of enzymes that reduce the tetrazolium blue dye to a formazan salt. Mitochondrial reductase enzymes will reduce MTT to formazan, which can be visualized by colorimetric reaction the absorbance of which can be quantified.
MTT assay was performed on human telomerase immortalized corneal epithelial cells treated with different concentrations of the peptide for 24 hrs. The test was performed in triplicate or quadruplicate wells with concentrations of the peptide of up to 100 μM using the following protocol. On day 1, plated the telomerase immortalized epithelial cells at 10,000 cells/well in a 96 well plate. Incubated the plate at 37° C. for […] to allow the cells to attach to the plate and spread. On day 2, incubated the cells in serum free media for at least 6 hrs prior to peptide treatment. On day 3, stimulated the cells with 100, 50, 25, 10, 5, 1, 0.5 and 0.1 μM Esc-1a(1-21)NH2 in quadruplicate for 24 hrs. On day 4, added 50 μl of 0.02% Benzalkonium chloride into 4 wells as a positive control for 15 minutes. Added 50 μl of serum free media into all the other wells (total volume 100 μl). Added 10 μl of MTT stock solution into each of the well. Incubated at 37° C. for 3 hours. At the end of 3 hours purple crystals were visible under the microscope. Added 100 μl of stop solution into each well using a multichannel pipette. Pipetted up and down to dissolve all the crystals. Gently popped the bubbles using a 10 μl tip. Read plate using plate reader at 590 nm abs and 635 nm reference. Subtracted reference OD value (635) from 590 OD value and plotted graph.

Like-named read-outs stand apart in the source and are kept apart here. Non-standard residues stand in square brackets, D forms with d. Residues, ends and D or L forms follow the SMILES beside them.

On to `CC[C@@H](C)[C@@H](NC(=O)CN)C(=O)N[C@H](Cc1ccccc1)C(=O)N[C@H](CO)C(=O)N[C@H](CCCCN)C(=O)N[C@H](CC(C)C)C(=O)N[C@H](C)C(=O)NCC(=O)N[C@H](CCCCN)C(=O)N[C@H](CCCCN)C(=O)N[C@@H](C(=O)N[C@H](CCCCN)C(=O)N[C@H](CC(N)=O)C(=O)N[C@H](CC(C)C)C(=O)N[C@H](CC(C)C)C(=O)N[C@@H](C(=O)N[C@H](CO)C(=O)NCC(=O)N[C@H](CC(C)C)C(=O)N[C@H](CCCCN)C(=O)NCC(N)=O)[C@H](C)CC)[C@H](C)CC` [all D Esc-1a(1-21)NH2] (H-G[dI][dF][dS][dK][dL][dA]G[dK][dK][dI][dK][dN][dL][dL][dI][dS]G[dL][dK]G-NH2; N-terminus assumed), for which the “reduction in the number of metabolically-active keratinocytes” value in data set [1] (2 h treatment, 1-64 μM) is reported as “did not show any remarkable reduction”. Besides, the “toxicity to HaCaT keratinocytes” value in data set [1] (higher concentration tested, 24 h) was “did not show toxicity”. Also, the “cell-covered area vs untreated control cells” value in [2] is on record as “no statistically significant difference”.
Compound `CC[C@H](C)[C@H](NC(=O)CN)C(=O)N[C@@H](Cc1ccccc1)C(=O)N[C@@H](CO)C(=O)N[C@@H](CCCCN)C(=O)N[C@@H](CC(C)C)C(=O)N[C@@H](C)C(=O)NCC(=O)N[C@@H](CCCCN)C(=O)N[C@@H](CCCCN)C(=O)N[C@H](C(=O)N[C@@H](CCCCN)C(=O)N[C@@H](CC(N)=O)C(=O)N[C@H](CC(C)C)C(=O)N[C@@H](CC(C)C)C(=O)N[C@H](C(=O)N[C@H](CO)C(=O)NCC(=O)N[C@@H](CC(C)C)C(=O)N[C@@H](CCCCN)C(=O)NCC(N)=O)[C@@H](C)CC)[C@@H](C)CC` [Esc-1a(1-21)-1cNH2] (H-GIFSKLAGKKIKN[dL]LI[dS]GLKG-NH2; N-terminus assumed) displayed a CC50 at 24 h in [3] of over 256 µM. Moreover, in data set [4], the “optimal concentration allowing almost complete coverage of the wound field” value came out at 4 µM. In addition, the “time to almost complete coverage of the wound field” value in [4] (at optimal concentration) was about 20 h. In [5], this compound had a killing of about 90%. In addition, in [6] (10% human fresh serum), the “Peptide Amount (%)” value was 45.61%; the share remaining at 5 h, 0.575 mM turned out to be 63.3%; the amount remaining at 24 h, 0.575 mM was 45.6%. In addition, in data set [6] (30% human fresh serum), the “Peptide Amount (%)” value is listed as 25.46%; the share remaining at 5 h, 0.575 mM was determined as 30.1%; the fraction remaining at 24 h, 0.575 mM turned out to be 25.5%. The same compound returned a biofilm killing in [7] (4 μM) of about 35%. The compound also yielded a biofilm death in data set [7] (16 μM) of about 80%. For the same compound, the biofilm killing in [7] (32 μM) is on record as about 90%. Also, in data set [8], the “decrease in the percentage of metabolically-active cells” value is on record as about 20%.
Consider “benzalkonium chloride [BAC, reference compound]”, for which the cytotoxicity in data set [9] (positive control (FIG. 4)) is recorded as about 100%. This compound gave a viability in data set [9] (positive control, 0.02% for 15 minutes) of 6.2%.

As a reminder, the CC50 is the concentration at which the toxic effect on the cells reaches its halfway point. The low end stands for greater toxicity to the cells, the high end for lower toxicity to the cells. In general, amount remaining refers to the share of the starting amount still present when the sample was taken. The term viability denotes the share of living cells, or the viability signal relative to a control. A higher viability goes with less harm to the cells.
